Measurements: the supplement of paper PMC10307832

Assays:
Test in all cases: relative viability (nuclei count vs DMSO), 5 days (fraction); higher = more cells survive
[1] = compound: CC1=CN2C(=O)C=C(N=C2C(=C1)C(C)NC3=CC=CC=C3)N4CCOCC4 [TGX 221] + CS(=O)(=O)CCNCc1ccc(-c2ccc3ncnc(Nc4ccc(OCc5cccc(F)c5)c(Cl)c4)c3c2)o1 [Lapatinib] (partner 2 µM)
Procedure, shortened: (§1)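 Cells from lung cancer lines were seeded into 1536-well plates and, one day later, dosed by pin tool. Treatments were either a single drug or a fixed dose of an anchor drug with five library-drug doses (not always all listed) in √10 steps. After 5 days, nuclei were stained in a one-step fixation (final 0.05% Triton X-100, 1% formaldehyde, 1 ug/ml Hoechst) and counted on 4× images, and relative viability is the treated-to-vehicle nuclei ratio, as the median of duplicate plates.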

[2] = compound: C1=CC=C(C(=C1)C2=CC=C(C=C2)C3=CSC4=C3C(=C(C(=O)N4)C#N)O)O + C[C@@H](Oc1cc(-c2cnn(C3CCNCC3)c2)cnc1N)c1c(Cl)ccc(F)c1Cl [Crizotinib] (partner 1 µM)
Procedure, shortened: as §1

[3] = compound: O=C(CCCCCCNC(=O)c1cnc(N(c2ccccc2)c2ccccc2)nc1)NO [Ricolinostat] + Cc1cc(Nc2cc(N3CCN(C)CC3)nc(Sc3ccc(NC(=O)C4CC4)cc3)n2)n[nH]1 [Tozasertib] (partner 0.1 µM)
Procedure, shortened: as §1

[4] = compound: O=C(CCCCCCNC(=O)c1cnc(N(c2ccccc2)c2ccccc2)nc1)NO [Ricolinostat] + C[C@]1(O)C[C@@H](c2nc(-c3ccc4ccc(-c5ccccc5)nc4c3)c3c(N)nccn32)C1 [Linsitinib] (partner 1 µM)
Procedure, shortened: as §1

Cell Line	relative viability ([1]; first compound 0.08 µM)	relative viability ([1]; first compound 0.253 µM)	relative viability ([1]; first compound 0.8 µM)	relative viability ([1]; first compound 2.53 µM)	relative viability ([1]; first compound 8 µM)	relative viability ([2]; first compound 0.08 µM)	relative viability ([2]; first compound 0.253 µM)	relative viability ([2]; first compound 0.8 µM)	relative viability ([2]; first compound 2.53 µM)	relative viability ([2]; first compound 8 µM)	relative viability ([3]; first compound 0.08 µM)	relative viability ([3]; first compound 0.253 µM)	relative viability ([3]; first compound 0.8 µM)	relative viability ([3]; first compound 2.53 µM)	relative viability ([4]; first compound 0.08 µM)	relative viability ([4]; first compound 0.253 µM)	relative viability ([4]; first compound 0.8 µM)	relative viability ([4]; first compound 2.53 µM)
LCLC-97TM1	1.12	0.726	1.12	1.05	1.02	0.428	0.65	0.495	0.271	0.191	0.171	0.2	0.149	0.153	0.171	0.199	0.231	0.172
NCI-H1734	0.907	1.05	1.1	1.06	0.927	0.627	0.703	0.689	0.634	0.444	0.241	0.29	0.231	0.292	0.737	0.843	0.961	1
NCI-H661	0.486	0.376	0.439	0.382	0.394	–	1.11	0.94	1.07	0.952	0.354	0.364	0.288	0.281	–	0.53	0.792	0.779
SK-LU-1	0.883	0.951	0.754	0.898	0.682	0.895	0.995	0.837	0.85	0.661	0.321	0.273	0.285	0.194	1.09	0.96	1.18	0.76
LC-2-ad	0.943	–	0.972	1.01	0.978	0.42	0.489	0.452	0.49	0.438	0.474	0.412	0.371	0.299	0.799	0.834	0.825	0.684
NCI-H1355	1.07	0.964	0.859	0.95	0.852	1.2	1.16	0.991	1.03	0.841	0.6	0.558	0.483	0.477	–	0.79	0.735	0.716
NCI-H1793	0.633	0.624	0.721	0.58	0.456	–	–	–	–	–	–	0.256	0.27	0.244	–	0.802	0.743	0.81
H3255	0.301	0.225	0.24	0.277	0.211	0.806	1.01	0.723	0.873	0.815	0.566	0.623	0.61	0.558	0.78	0.879	0.878	0.854
NCI-H2342	–	–	–	–	–	–	–	–	–	–	0.496	0.461	0.401	0.426	–	–	–	–
NCI-H838	1.06	0.876	0.886	0.822	0.718	0.639	1.08	0.892	0.794	0.732	0.255	0.275	0.238	0.212	0.944	1.01	1.1	0.9
NCI-H727	0.751	0.731	0.794	0.832	0.919	0.701	0.961	0.864	0.995	0.756	0.448	0.704	0.734	0.563	0.212	0.269	0.333	0.354
UMC-11	0.879	0.854	0.901	0.909	1.18	0.547	0.506	0.574	0.487	0.622	0.221	0.192	0.159	0.165	1.02	0.932	1	0.723
CAL-12T	–	0.533	0.576	–	0.621	–	0.789	0.441	0.739	0.485	0.326	0.261	0.284	0.196	0.55	0.69	0.835	0.859
NCI-H1755	1.06	1.02	1.01	0.974	0.943	0.74	0.916	0.738	0.97	0.827	0.581	0.565	0.525	0.53	0.901	–	0.994	0.966
NCI-H1651	0.777	0.644	0.758	0.804	0.599	0.878	0.823	0.851	0.878	0.826	0.658	0.744	0.633	0.436	0.72	0.871	0.93	0.816
NCI-H2170	0.285	0.26	0.264	0.276	0.265	1.13	1.34	1.25	1.28	0.888	0.758	0.61	0.622	0.723	–	–	–	–
NCI-H1915	0.88	0.978	0.999	0.963	0.985	0.806	1.05	0.828	0.937	0.65	0.438	0.455	0.385	0.377	1.01	1.04	1.02	1.01
EPLC-272H	1.04	0.881	0.822	–	0.962	–	1.04	0.839	0.891	0.796	0.354	0.192	0.333	0.317	–	0.894	1.21	0.772
NCI-H2087	1.09	0.912	1.13	0.985	1.11	0.845	1.04	0.914	1.02	0.825	–	0.253	0.164	0.168	0.896	0.986	1.01	0.847
A-427	0.998	0.992	1.01	0.991	1.05	0.905	1.08	0.998	1.05	0.988	–	0.198	0.182	0.174	0.958	1.07	1.01	0.875
